This passage reports EC50 results from patent US7985771B2, “Furanone derivatives” (Monsanto Technology LLC, priority 2002, dated 2011).

In assay [1] the test system is IL-1beta release from a mouse microglial cell line. As to the kind of experiment: Interleukin-1 beta microglial cell assay. The assay is classed as cell-based. The settings on record: LPS and IFN gamma stimulation, 24 hours, read-out: inhibition of IL-1beta induction, EC50. As to the method:
This assay measures the release of IL-1β from a mouse microglial cell line following an inflammatory challenge with LPS and interferon-gamma. The ability of test articles to inhibit microglial cell activation and IL-1beta release is determined by co-incubation of the test article with the inflammatory challenge. Cytokine release is measured using a mouse IL-1β ELISA and cell toxicity is determined using Cell Tracker Green (a fluorescent dye that measures cell viability).
Mouse microglial cells were seeded in poly-D-lysine coated 96-well plates at a density of 10,000 cells/well and allowed to attach for 24 hours. Cells were stimulated by addition of LPS (10 μg/ml) and IFN gamma (10 ng/ml) in the presence or absence of test article. The cells were then incubated for 24 hours at 37° C., after which time the media was removed and used for cytokine determination as described below.
Viability of mouse microglial cells after exposure to the test article was determined using a fluorescent viability dye, Cell Tracker Green. Cell Tracker Green was used at a working concentration of 5 μM in 1× HBSS. Cells were washed once with HBSS (200 μl/well) and 100 μl Cell Tracker Green was added to each well. Cells were then incubated at 37° C. for 30 minutes, after which time the Cell Tracker was removed and the cells were washed once with HBSS (200 μl/well). 100 μl fresh HBSS was added to each well and the plate was read on a Fluoroskan plate reader using an excitation wavelength of 485 nm and an emission wavelength of 538 nm.
1. The IL-1β capture antibody was reconstituted in 1 ml of PBS to give a final concentration of 720 μg/ml, and the working concentration was 4 μg/ml. For coating one 96-well plate (at 100 μl/well) 56 μl of the 720 μg/ml stock was diluted into 10 ml of PBS. 2. The IL-1β standards were reconstituted in 0.5 ml of Reagent Diluent (70 ng/ml). For a high standard of 1 ng/ml (2 wells at 100 μl each+enough for series dilution) 7.1 μl of the 70 ng/ml standard were diluted into 0.5 ml of Reagent Diluent 3. The IL-1β detection antibody was reconstituted in 1 ml of Reagent Diluent to give a final concentration of 18 μg/ml and the working concentration is 100 ng/ml. For one 96-well plate (at 100 μl/well) 56 μl of the 18 μg/ml stock was diluted into 10 ml of Reagent Diluent.
1. The Costar EIA Hi-binding plate was coated with capture antibody at 4 μg/ml. Each well was coated with 100 μl, and the plate was sealed and incubated overnight at room temperature.
2. Each well was aspirated and washed 3× with Wash Buffer. Each well was filled to the top, dispensed, and any remaining buffer was removed by inverting the plate and gently blotting against clean paper towels.
3. Non-specific binding sites were blocked by adding 300 μl of Blocking Buffer to each well, and after sealing incubating for at least 1 hour at room temperature.
5. 100 μl of either standard or sample were added in each well of the capture-coated and pre-blocked plate. The plate was sealed and incubated for 2 hours at room temperature, followed with washing as in step 2.
6. 100 μl of the detection antibody ([…]) were added to each well.
7. The plate was sealed and incubated at room temperature for 2 hours, followed with washing as in step 2.
8. 100 μl of the working dilution of Streptavidin-HRP was added, and the plate was sealed and incubated in the dark for 20 minutes at room temperature, followed with washing as in Step 2.
9. The fresh Substrate Solution was prepared by mixing Color Reagent A (H2O2) and Color Reagent B (Tetramethylbenzidine) in a 1:1 ratio. 100 μl of this Substrate Solution mixture was added to each well and the plate was incubated in the dark for 20 minutes at room temperature. 10. 50 μl of Stop Solution was added to each well, mixing was ensured by gently tapping. 11. Each plate was read with the Spectramax once at 450 nm. Results

The test system of assay [2] is ELAM (E-selectin) expression in endothelial cells. Nature of the assay: E-selectin (ELAM) cell inflammation assay. The assay is classed as cell-based. The settings on record: LPS and IL-1β stimulation, read-out: reduction of expression of ELAM, EC50. As to the method:
Endothelial-Leukocyte Adhesion Molecule (ELAM), also known as E-selectin, is expressed on the surface of endothelial cells. In this assay, lipopolysaccharide (LPS) and IL-1β are used to stimulate the expression of ELAM; test agents are tested for their abilities to reduce this expression, in accordance with studies showing that reduction of leukocyte adhesion to endothelial cell surface is associated with decreased cellular damage (e.g., Takada, M., Et al., Transplantation 64: 1520-25, 1997; Steinberg, J. B., et al., J. Heart Lung Trans. 13:306-313, 1994).
Endothelial cells may be selected from any of a number of sources and cultured according to methods known in the art; including, for example, coronary artery endothelial cells, human brain microvascular endothelial cells (HBMEC; Hess, D.C., et al., Neurosci. Left. 213(1): 37-40, 1996), or lung endothelial cells. Cells are conveniently cultured in 96-well plates. Cells are stimulated by adding a solution to each well containing 10 μg/ml LPS and 100 pg/ml IL-1β for 6 hours in the presence of test agent (specific concentrations and time may be adjusted depending on the cell type). Treatment buffer is removed and replaced with pre-warmed Fixing Solution® (100 μl/well) for 25 minutes at room temperature. Cells are then washed 3×, then incubated with Blocking Buffer (PBS+2% FBS) for 25 minutes at room temperature. Blocking Buffer containing Monoclonal E-Selectin Antibody (1:750, Sigma Catalog #S-9555) is added to each well. Plates are sealed and stored at 4° overnight. Plates are washed 4× with 160 μL Blocking Buffer per well. Second Antibody-HRP diluted 1:5000 in Blocking Buffer is then added (100 μL/well), and plates are incubated at room temperature (protected from light) for two hours. Plates are then washed 4× with Blocking Buffer before addition of 100 μL of ABTS Substrate solution at room temperature (Zymed, Catalog #00-2024). Wells are allowed to develop for 35 minutes, before measurement at 402 nm in a Fluoroskan® Reader with shake program for 10 seconds. Positive results are recorded as a decrease in ELAM concentration in tested wells, as compared to control wells.

Take `CCOC(=O)C1(CSCc2ccco2)OC(=O)C(OC(=O)C(C)C)=C1SCc1ccco1` (centres unmarked) [3-(Furan-2-ylmethylsulfanyl)-2-(furan-2-ylmethylsulfanylmethyl)-4-isobutyryloxy-5-oxo-2,5-dihydro-furan-2-carboxylic acid ethyl ester]: the EC50 in assay [1] is ≤ 20 µM; in assay [2], ≤ 30 µM.

For the molecule `CCOC(=O)C1(CSCc2ccccc2)OC(=O)C(O)=C1SCc1ccccc1` (centres unmarked) [3-Benzylsulfanyl-2-benzylsulfanylmethyl-4-hydroxy-5-oxo-2,5-dihydro-furan-2-carboxylic acid ethyl ester], the concentration for a half-maximal effect (EC50) was ≤ 20 µM in assay [1] and ≤ 30 µM in assay [2].

Turning to `CCOC(=O)C1(CSC2CCCCC2)OC(=O)C(O)=C1SC1CCCCC1` (centres unmarked) [3-Cyclohexylsulfanyl-2-cyclohexylsulfanylmethyl-4-hydroxy-5-oxo-2,5-dihydro-furan-2-carboxylic acid ethyl ester], the EC50 in assay [1] is ≤ 20 µM; in assay [2], ≤ 30 µM.

On to `CCOC(=O)CSCC1(C(=O)OCC)OC(=O)C(OC(=O)C(C)(C)C)=C1SCC(=O)OCC` (centres unmarked) [4-(2,2-Dimethyl-propionyloxy)-3-ethoxycarbonylmethylsulfanyl-2-ethoxycarbonylmethylsulfanylmethyl-5-oxo-2,5-dihydro-furan-2-carboxylic acid ethyl ester], for which the 50% effective concentration (EC50) in assay [1] was ≤ 20 µM; in assay [2] it was ≤ 30 µM.

Take `CCOC(=O)C1(CSc2nc3ccccc3n2C)OC(=O)C(O)=C1Sc1nc2ccccc2n1C` (centres unmarked) [4-Hydroxy-3-(1-methyl-1H-benzoimidazol-2-ylsulfanyl)-2-(1-methyl-1H-benzoimidazol-2-ylsulfanylmethyl)-5-oxo-2,5-dihydro-furan-2-carboxylic acid ethyl ester]: the values for the 50% effective concentration (EC50) in assay [1] and in assay [2] were ≤ 20 µM and ≤ 30 µM, respectively.

`CCOC(=O)C1(CSc2nc3cc(OC)ccc3s2)OC(=O)C(O)=C1Sc1nc2cc(OC)ccc2s1` (centres unmarked) [4-Hydroxy-3-(5-methoxy-benzothiazol-2-ylsulfanyl)-2-(5-methoxy-benzothiazol-2-ylsulfanylmethyl)-5-oxo-2,5-dihydro-furan-2-carboxylic acid ethyl ester]: the figures for the EC50 in assay [1] and in assay [2] were ≤ 20 µM and ≤ 30 µM, respectively.

Take `CCOC(=O)C1(CSc2nc3ccc([N+](=O)[O-])cc3s2)OC(=O)C(O)=C1Sc1nc2ccc([N+](=O)[O-])cc2s1` (centres unmarked) [4-Hydroxy-3-(6-nitro-benzothiazol-2-ylsulfanyl)-2-(6-nitro-benzothiazol-2-ylsulfanylmethyl)-5-oxo-2,5-dihydro-furan-2-carboxylic acid ethyl ester]: the EC50 in assay [1] was ≤ 20 µM; in assay [2], ≤ 30 µM.

Take `CCOC(=O)C1(CSc2ccc(C=CC(=O)OC)cc2)OC(=O)C(O)=C1Sc1ccc(C=CC(=O)OC)cc1` (centres unmarked) [4-Hydroxy-3-[4-(2-methoxycarbonyl-vinyl)-phenylsulfanyl]-2-[4-(2-methoxycarbonyl-vinyl)-phenylsulfanylmethyl]-5-oxo-2,5-dihydro-furan-2-carboxylic acid ethyl ester]: the EC50 was ≤ 20 µM in assay [1] and ≤ 30 µM in assay [2].

Take `CCOC(=O)C1(CSc2nc(-c3ccccc3)cs2)OC(=O)C(O)=C1Sc1nc(-c2ccccc2)cs1` (centres unmarked) [4-Hydroxy-5-oxo-3-(4-phenyl-thiazol-2-ylsulfanyl)-2-(4-phenyl-thiazol-2-ylsulfanylmethyl)-2,5-dihydro-furan-2-carboxylic acid ethyl ester]: the EC50 in assay [1] is ≤ 20 µM; in assay [2], ≤ 30 µM.

Consider `CCOC(=O)C1(CSc2nccc(C(F)(F)F)n2)OC(=O)C(O)=C1Sc1nccc(C(F)(F)F)n1` (centres unmarked) [4-Hydroxy-5-oxo-3-(4-trifluoromethyl-pyrimidin-2-ylsulfanyl)-2-(4-trifluoromethyl-pyrimidin-2-ylsulfanylmethyl)-2,5-dihydro-furan-2-carboxylic acid ethyl ester], for which the EC50 was ≤ 20 µM in assay [1] and ≤ 30 µM in assay [2].
